# Assay results reported in ChEMBL document CHEMBL1149118, “Validation of molecular docking calculations involving FGF-1 and FGF-2” (J Med Chem, 2004).
# Tests used:
# [1] = biological target: T1, Fibroblast growth factor 2 (Homo sapiens, UniProt P09038); assay: Binding affinity for Fibroblast growth factor 2
# [2] = biological target: T2, Fibroblast growth factor 1 (Homo sapiens, UniProt P05230); assay: Dissociation constant for Fibroblast growth factor 1
# [3] = biological target: T2, Fibroblast growth factor 1; assay: Binding affinity for Fibroblast growth factor 1
# [4] = biological target: T1, Fibroblast growth factor 2; assay: Dissociation constant for Fibroblast growth factor 2
# [5] = biological target: T1, Fibroblast growth factor 2; assay: Dissociation constant for Fibroblast growth factor 2 (None observed)
# [6] = biological target: T1, Fibroblast growth factor 2; assay: Dissociation constant for Fibroblast growth factor 2 (None Observed)
# T1 sequence (P09038 143-288 limits assumed): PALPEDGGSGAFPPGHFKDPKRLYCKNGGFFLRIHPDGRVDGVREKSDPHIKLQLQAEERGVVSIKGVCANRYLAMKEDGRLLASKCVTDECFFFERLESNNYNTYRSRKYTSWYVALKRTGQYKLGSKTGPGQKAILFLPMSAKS
# T2 sequence (P05230 whole entry): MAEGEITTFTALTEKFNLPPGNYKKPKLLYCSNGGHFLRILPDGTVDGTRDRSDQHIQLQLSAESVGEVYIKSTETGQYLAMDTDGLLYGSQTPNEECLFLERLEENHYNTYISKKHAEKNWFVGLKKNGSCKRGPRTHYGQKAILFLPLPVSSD
Structure (SMILES),Delta G [1],Kd [2],Delta G [3],Kd [4],Kd [5],Kd [6]
[N-]=[N+]=NCC1OC(OS(=O)(=O)O)C(OS(=O)(=O)O)C(OS(=O)(=O)O)C1OS(=O)(=O)O (configuration not stated),-4.89 kcal/mol,340 µM,-4.73 kcal/mol,258 µM,,
CO[C@@H]1O[C@@H](COS(=O)(=O)O)[C@@H](OS(=O)(=O)O)[C@H](OC(=O)c2ccccc2)[C@@H]1OC(=O)c1ccccc1,,921 µM,-4.14 kcal/mol,,None observed,
O=C(O)c1cc(/N=N/c2ccc(S(=O)(=O)Nc3ccccn3)cc2)ccc1O [SULFASALAZINE],,609 µM,-4.38 kcal/mol,,,None Observed
O=S(=O)(O)OC[C@H]1OCC[C@@H](OCc2ccccc2)C1OS(=O)(=O)O (some centres not stated),-3.13 kcal/mol,3410 µM,-3.36 kcal/mol,5100 µM,,
COC1OC(C)C(OCc2ccccc2)C(OS(=O)(=O)O)C1OS(=O)(=O)O (configuration not stated),-4.91 kcal/mol,338 µM,-4.73 kcal/mol,249 µM,,
C=CCOC1C(C)OC(OC)C(OS(=O)(=O)O)C1OS(=O)(=O)O (configuration not stated),,1340 µM,-3.92 kcal/mol,,None observed,
O=S(=O)(O)c1ccc2c(S(=O)(=O)O)cc(S(=O)(=O)O)cc2c1 [NAPHTHALENE TRISULFONATE],-4.98 kcal/mol,474 µM,-4.53 kcal/mol,223 µM,,
CO[C@@H]1CCO[C@H](COS(=O)(=O)O)C1OS(=O)(=O)O (some centres not stated),-2.39 kcal/mol,5940 µM,-3.04 kcal/mol,17400 µM,,
O=S(=O)(O)OC[C@H]1OCC[C@@H](OCCCOc2ccccc2)C1OS(=O)(=O)O (some centres not stated),-2.9 kcal/mol,3250 µM,-3.39 kcal/mol,7500 µM,,

# Compounds with a lower Kd [2], results first:
Delta G [1],Kd [2],Delta G [3],Kd [4],Kd [5],Kd [6],Structure (SMILES)
-2.86 kcal/mol,307 µM,-4.79 kcal/mol,8020 µM,,,COC1C(OCc2ccccc2)C2COC(O2)C1OS(=O)(=O)O (configuration not stated)
-4.44 kcal/mol,300 µM,-4.8 kcal/mol,550 µM,,,CO[C@H]1O[C@@H](COCC(=O)N(CCOS(=O)(=O)O)CC(=O)NC2CCCCC2)[C@@H](OS(=O)(=O)O)[C@H](OS(=O)(=O)O)[C@H]1OS(=O)(=O)O
-4.72 kcal/mol,127 µM,-5.31 kcal/mol,343 µM,,,CO[C@H]1O[C@H](COS(=O)(=O)O)[C@@H](OS(=O)(=O)O)[C@H](OS(=O)(=O)O)[C@@H]1OS(=O)(=O)O
-4.67 kcal/mol,120 µM,-5.35 kcal/mol,375 µM,,,O=C(CN(Cc1ccccc1)C(=O)C1OC(OS(=O)(=O)O)C(OS(=O)(=O)O)C(OS(=O)(=O)O)C1OS(=O)(=O)O)NC1CCCCC1 (configuration not stated)
-5.19 kcal/mol,37.5 µM,-6.04 kcal/mol,155 µM,,,O=S(=O)(O)OC[C@@H]1O[C@H](OS(=O)(=O)O)[C@H](OS(=O)(=O)O)[C@@H](OS(=O)(=O)O)[C@@H]1OS(=O)(=O)O
-6.65 kcal/mol,1.2 µM,-8.07 kcal/mol,13.3 µM,,,O=S(=O)(O)OC[C@@H]1O[C@@H](O[C@H]2[C@H](OS(=O)(=O)O)[C@H](OS(=O)(=O)O)C(OS(=O)(=O)O)O[C@H]2COS(=O)(=O)O)[C@@H](OS(=O)(=O)O)[C@H](OS(=O)(=O)O)[C@H]1OS(=O)(=O)O (some centres not stated)
-6.53 kcal/mol,1.15 µM,-8.1 kcal/mol,16.2 µM,,,CO[C@@H]1O[C@@H](COS(=O)(=O)O)[C@@H](O[C@@H]2O[C@@H](COS(=O)(=O)O)[C@H](OS(=O)(=O)O)[C@H](OS(=O)(=O)O)[C@@H]2OS(=O)(=O)O)[C@H](OS(=O)(=O)O)[C@@H]1OS(=O)(=O)O
-7.17 kcal/mol,0.74 µM,-8.36 kcal/mol,5.5 µM,,,O=S(=O)(O)C[C@@H]1[C@@H](O[C@]2(COS(=O)(=O)O)O[C@H](COS(=O)(=O)O)[C@@H](OS(=O)(=O)O)[C@@H]2OS(=O)(=O)O)O[C@@H](CS(=O)(=O)O)[C@@H](OS(=O)(=O)O)[C@H]1OS(=O)(=O)O
-7.09 kcal/mol,0.54 µM,-8.54 kcal/mol,6.3 µM,,,O=S(=O)(O)OC[C@@H]1O[C@H](O[C@H]2[C@H](OS(=O)(=O)O)[C@H](OS(=O)(=O)O)C(OS(=O)(=O)O)O[C@H]2COS(=O)(=O)O)[C@@H](OS(=O)(=O)O)[C@H](OS(=O)(=O)O)[C@H]1OS(=O)(=O)O (some centres not stated)
-6.24 kcal/mol,0.13 µM,-9.39 kcal/mol,26.7 µM,,,O=S(=O)(O)C[C@@H]1[C@H](OS(=O)(=O)O)O[C@H](OS(=O)(=O)O)[C@H](O[C@H]2O[C@@H](COS(=O)(=O)O)[C@@H](OS(=O)(=O)O)[C@H](OS(=O)(=O)O)[C@H]2OS(=O)(=O)O)[C@H]1OS(=O)(=O)O
-8.08 kcal/mol,0.0078 µM,-11.1 kcal/mol,1.18 µM,,,O=S(=O)(O)OC[C@@H]1O[C@H](OS(=O)(=O)O)[C@H](OC2O[C@@H](COS(=O)(=O)O)[C@@H](S(=O)(=O)O)[C@H](O[C@H]3O[C@@H](COS(=O)(=O)O)[C@@H](OS(=O)(=O)O)[C@H](OS(=O)(=O)O)[C@H]3OS(=O)(=O)O)[C@H]2OS(=O)(=O)O)[C@@H](OS(=O)(=O)O)[C@@H]1OS(=O)(=O)O (some centres not stated)
